# Laboratory results from patent US8242086B2, “Methods and compositions for treating disorders caused by a deficiency in a gene product of a CLN gene” (Duke University, priority 2008, dated 2012).
# “Also recorded” adds a separate entry of the source.
# Legend:
# [1] = molecular target: T1, CLN6 protein (Homo sapiens, UniProt Q9NWW5); experiment: Protein-lipid overlay assay, CLN6 protein; assay type: binding; settings: lysates from normal cells, custom made sphingostrips
# T1 construct: endogenous in cells
# T1 sequence (Q9NWW5 1-311): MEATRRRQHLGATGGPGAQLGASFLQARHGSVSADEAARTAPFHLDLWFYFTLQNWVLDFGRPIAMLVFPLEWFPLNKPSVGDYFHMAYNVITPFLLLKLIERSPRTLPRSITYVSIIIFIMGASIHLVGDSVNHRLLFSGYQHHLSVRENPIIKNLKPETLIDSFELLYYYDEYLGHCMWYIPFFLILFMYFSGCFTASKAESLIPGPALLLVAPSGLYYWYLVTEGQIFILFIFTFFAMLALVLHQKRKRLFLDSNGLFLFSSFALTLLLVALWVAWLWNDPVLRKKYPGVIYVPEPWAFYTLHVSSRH
# Description: Protein-lipid overlay assay. Membrane arrays (SPHINGOSTRIPS (Echelon Research Laboratories, Salt Lake City, Utah), or lipids were spotted on nitrocellulose membranes and dried for at least one hour. Membranes were blocked with 3% (wt/vol) Fatty Acid Free or FFA-BSA (Sigma-Aldrich, St. Louis, Mo.) in Tris-Buffered Saline Tween-20 (TBST) [150 mM NaCl/10 mM Tris.HCl (pH 8.0), and 0.1% (vol/vol) Tween-20] for 1 h at RT. Blocked membranes were incubated for 8 h at 4° C. with 2 mg/ml of total cell lysate.
# Fibroblasts overexpressing CLN3p (AC1 cells) and JNCL fibroblasts were used for the GalCer-CLN3 binding assay. The membranes were then washed five times for 5 min each with TBST. After washing, membranes were incubated with anti-CLN3, CLN1, CLN2, CLN6 or CLN8-antibodies overnight at 1:1000 dilution, followed by additional washing and incubation with horseradish peroxidase-conjugated anti-rabbit IgG goat antibody for 1 h at RT. After a final washing, enhanced chemiluminescence was used to detect binding of NCL proteins to sphingolipids. Intensity values were computed with an ImageJ software program.
# CLN1, CLN2, CLN6, CLN8 and CLN9 proteins also bind to lipids. The protein-lipid overlay assay, using custom made sphingostrips, lysates from normal cells and anti-CLN1, anti-CLN2-, anti-CLN6, and anti-CLN8-antibodies, established that CLN6 and CLN8 proteins bind to GalCer, CLN1, CLN2 and CLN6p bind lysophosphatidic acid (LPA) and sulfatide, and CLN8p binds ceramide (FIG. 5).
# [2] = Intraperitoneal GalCer injection of normal mice, GalCer mass in kidney subcellular fractions (TLC); assay type: in vivo, mouse; settings: intraperitoneal injection (α-GalCer), two days prior to sacrifice
# Description: Mouse experiments. Six homozygous Cln3^Δex7/8 adult 60 day old mice and six age and sex-matched control mice were deeply anesthetized by xylazine/ketamine and sacrificed by cardiac perfusion of ice-cold phosphate-buffered saline (PBS, pH 7.4), followed by periodate-lysine-phosphate (PLP) fixative (2% paraformaldehyde, 0.01M sodium periodate and 0.1M lysine phosphate buffer, pH 7.4). Mouse brains were snap-frozen in liquid nitrogen. Three of the frozen brains from each group were used for subcellular fractionation and thin layer chromatography, and frozen sections were obtained for fluorescence immunocytochemistry from the rest. At the age of 60 days and two days prior to sacrifice, three of six control mice were injected with α-GalCer at a dose of […] or vehicle intraperitoneally. They were deeply anesthetized by xylazine/ketamine and sacrificed by cardiac perfusion of ice-cold phosphate-buffered saline (PBS, pH 7.4), followed by periodate-lysine-phosphate (PLP) fixative (2% paraformaldehyde, 0.01M sodium periodate and 0.1M lysine phosphate buffer, pH 7.4). […]
# Thin Layer Chromatography for Quantification of Galactosylceramide. […] Lipid quantification was accomplished with ImageQuant™ program and normalized with respect to phosphate content.
# [3] = system: galactosylceramide transferase (GCT); settings: exogenous supplementation of GalCer; Rusyn E et al., 2008; cited from earlier work
substance,measurement,setting,value
galactosylceramide [GalCer],binding of CLN6 protein to lipid,[1],bind
same,kidney Golgi GalCer,[2],concomitant reduction in Golgi GalCer; also recorded: concomitant drop in Golgi GalCer
same,kidney lipid raft (plasma membrane) GalCer,[2],increase GalCer at the plasma membrane; also recorded: increases kidney lipid raft GalCer
same,growth defect and increased apoptosis of GalCer synthase knockdown lymphoblasts,[3],remedied
